Patent publication US7384966B2, “2-arylbenzothiazole derivatives” (Pharminxo Limited, priority 2004, dated 2008)
Entries after “also recorded” stand apart in the source; their conditions may differ. Like-named read-outs stand apart in the source and are kept apart here.

Assays:
MCF-7 [1] = assay: MTT assay, 3 day exposure, MCF-7; format: cell-based; conditions: Homo sapiens, read-out: GI50 values in cell lines, MCF-7
Protocol: (§1) A range of compounds were evaluated in MTT assays following 3 day exposure against a panel of two human breast cancer cell lines MCF-7 (ER+) and MDA 468 (ER−), and two colon cancer cell lines KM12 and HCC 2998. In general the breast cell lines were more sensitive to the agents and the MDA 468 line the most sensitive of the four (Table 2). The benchmark active compound was 5-fluoro-2-(3,4-dimethoxyphenyl)benzothiazole (1) with GI50 values<0.1 nM against the two breast cell lines. […] The most interesting series of compounds were those combining a 5-fluoro group with two oxygenated substituents in the 3′,4′-positions where minor, seemingly conservative, structural changes were associated with a dramatic variations in activity (when compared to 1). […] In summary, this in vitro screen led to the identification of the fluorinated 2-(3,4-dimethoxyphenyl)benzothiazole structure as a novel antitumor pharmacophore with the 5-fluoro analogue (1) astride a pinnacle of activity.
(§2) The assays/methods used to generate the results referred to herein are well known to those skilled in the art and therefore it has not been necessary to describe them in detail.

MDA 468 = assay: MTT assay, 3 day exposure, MDA 468; format: cell-based; conditions: Homo sapiens, MDA 468 (breast), read-out: GI50 values in cell lines, MDA 468
Protocol: as §1, §2

KM 12 = assay: MTT assay, 3 day exposure, KM12; format: cell-based, human; conditions: KM 12 (colon), read-out: GI50 values in cell lines, KM 12
Protocol: as §1, §2

HCC 2998 = assay: MTT assay, 3 day exposure, HCC 2998; format: cell-based; conditions: Homo sapiens, HCC 2998, 72 h, HCC 2998 (colon), MTT, 3 day exposure, triplicate; read-out: GI50 values in cell lines, HCC 2998
Protocol: as §1, §2

cyp lal [2] = target: T1, cyp lal (Homo sapiens, UniProt P04798); assay: Inhibition of cyp lal (EROD) activity, de-ethylation of ethoxyresorufin by cyp lal microsomes; format: biochemical
T1 construct: host or cells: microsomes
T1 sequence (P04798 1-512): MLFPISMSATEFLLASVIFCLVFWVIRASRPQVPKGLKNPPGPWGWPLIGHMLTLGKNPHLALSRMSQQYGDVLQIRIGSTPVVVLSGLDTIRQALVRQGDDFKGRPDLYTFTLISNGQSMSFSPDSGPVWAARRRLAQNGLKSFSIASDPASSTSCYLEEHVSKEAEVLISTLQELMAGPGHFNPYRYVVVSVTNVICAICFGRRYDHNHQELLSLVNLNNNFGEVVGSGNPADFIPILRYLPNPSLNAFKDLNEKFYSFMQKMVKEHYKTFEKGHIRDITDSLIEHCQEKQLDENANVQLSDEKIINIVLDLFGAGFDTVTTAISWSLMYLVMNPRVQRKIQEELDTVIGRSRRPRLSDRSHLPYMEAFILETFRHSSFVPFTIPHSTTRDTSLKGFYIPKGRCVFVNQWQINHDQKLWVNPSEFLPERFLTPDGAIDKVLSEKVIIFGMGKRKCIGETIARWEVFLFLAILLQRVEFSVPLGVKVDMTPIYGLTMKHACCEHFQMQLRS
Protocol: Compound 1 inhibits cyp lal (EROD) activity in a dose dependent manner (IC50=8 μM; FIG. 4).
The results shown in FIG. 4 were generated by measuring the de-ethylation of ethoxyresorufin by cyp lal microsomes in the absence and the presence of increasing concentrations of compound 1. DF 203 was used as a positive control.

[3] = test system: NCI in vitro 60 human cancer cell panel; assay: NCI in vitro 60 human cancer cell panel, sulforhodamine B assay; format: cell-based; conditions: for sensitivity of cancer cell panels / antitumour activity in vitro: NCI mean GI50 graphs, FIGS. 1 and 8 to 12
Protocol: Results from the more extensive NCI in vitro 60 human cancer cell panel^15 corroborated the results (above). The mean GI50 values across the range of compounds (above), including the two series of esters (11-21) are an unremarkable 10-100 μM (data not shown); however, these values disguise significant cell selectivity. […] Full NCI mean GI50 graphs for compounds (1,2,3,4,101,102) are included herein as FIGS. 1 and 8 to 12.
The results shown on FIG. 1 were generated by treating the cells with an active agent for 48 hours, in this case compound 1, before determination of viability by sulforhodamine B assay.

cyp lal [4] = assay: Induction of cyp lal gene transcription; format: cell-based
Protocol: These cell lines are known to be sensitive to compound 1 and 2-(4-amino-3-methylphenyl)-5-fluorobenzothiazole (102, 5F 203; NSC 703786; WO 95/06469) In cell lines which are sensitive to compound 1 only, cyp lal gene transcription was not induced.
The results shown in FIG. 2 were generated by treating the cells with 1 μM of an active agent for 24 hours before determination of changes in cyp lal gene expression.

cyp lal [5] = assay: Induction of cyp lal protein expression by Western Blot; format: cell-based
Source text: These findings have been verified following examination of induction of cyp lal protein expression by Western Blot. The following cell lines were used to represent sensitive models: MCF-7, MDA 468 (breast carcinoma), KM12 and HCC 2998 (colon carcinoma) lines.

cyp lbl = assay: Induction of cyp lbl gene transcription; format: cell-based
[6] = test system: DNA of MCF-7, MDA 468, KM12 and HCC 2998 cells; assay: DNA adduct formation; format: cell-based, human; conditions: MCF-7, MDA 468, KM 12 and HCC 2998 cells; 10 μM, 24 hours
[7] = test system: MCF-7, MDA 468, KM12 and HCC 2998; assay: MTT assay, panel of four cell lines, results in words; format: cell-based, human; conditions: compared to compound 1
Protocol: as §1

MCF-7 [8] = assay: Growth inhibition alone or in combination with resveratrol, MCF-7; format: cell-based, human; conditions: MCF-7 (cyp lal-inducible), resveratrol 51 μM
Protocol: The results shown in FIGS. 3a and 3b were generated using MCF-7 (FIG. 3a) and HCC 2998 (FIG. 3b) cells. The said cells were treated with DF 203 or compound 1, alone or in combination with resveratrol (51 μM) an inhibitor of cyp lal activity. It can be seen that in MCF-7 cells (cyp lal-inducible) the activity of DF 203 was abolished.

MCF-7 [9] = conditions: aminophenyl benzothiazole sensitive cells with inducible cyp lal; Hose et al 2003; cited from earlier work
[10] = MCF7, 72 h, MCF-7 (breast), MTT, 3 day exposure, triplicate
[11] = MCF7, MCF-7 (breast), value in nM
[12] = 72 h, MTT, 3 day exposure, triplicate
[13] = Homo sapiens, KM12, 72 h, MTT, 3 day exposure, triplicate

COc1ccc(-c2nc3cc(F)ccc3s2)cc1OC [Compound 1, 2-(3,4-dimethoxyphenyl)-5-fluorobenzothiazole]
GI50 (MCF-7 [1]; [10]): < 0.1 nM | GI50 (MCF-7 [1]; [11]): < 0.1 nM | GI50 (MDA 468; [12]): < 0.1 nM | GI50 (MDA 468; value in nM): < 0.1 nM | GI50 (KM 12; [13]): 290 nM | GI50 (HCC 2998): 0.00025 µM | IC50 (cyp lal [2]): 8 µM | GI50 ([3]; Homo sapiens, colon and NSCL sub-panels, 48 hours, read-out: GI50 values against some cell lines): < 10 nM | induction of cyp lal gene transcription (cyp lal [4]; MCF-7, T-47D, TK-10, NC1 and 1460 cells, 1 μM, 24 hours): able to induce cyp lal gene transcription | induction of cyp lal gene transcription (cyp lal [4]; cell lines which are sensitive to compound 1 only): not induced | induction of cyp lal protein (cyp lal [5]; colon cell lines KM12 and HCC 2998): not induced | induction of cyp lal protein (cyp lal [5]; lysates of MCF-7 and MDA 468 breast cells): Induction of cyp lal protein was observed | induction of cyp lbl gene transcription (cyp lbl): can be induced | induction of cyp lbl transcription (cyp lbl; certain compound 1-sensitive colon and lung carcinoma cells): no induction of cyp-lbl transcription

COc1ccc(-c2nc3c(F)cccc3s2)cc1OC [Compound 2, 4-Fluoro-2-(3,4-dimethoxyphenyl)benzothiazole]
GI50 (MCF-7 [1]; [10]): 5 nM | GI50 (MCF-7 [1]; [11]): 2.9 nM | GI50 (MDA 468; [12]): 5 nM | GI50 (MDA 468; value in nM): 3.4 nM | GI50 (KM 12; [13]): 850 nM | GI50 (KM 12; value in nM): 78.4 nM | sensitivity of cancer cell panels / antitumour activity in vitro [3]: reduced activity against cancer cells when compared to compound 1; also recorded: substantial potent and selective antitumour activity; also recorded: potent (but attenuated compared to 1), activity in the colon and NSCL sub-panels | DNA adducts formed [6]: One major adduct species | growth inhibitory potency in words [7]: retained nanomolar growth inhibitory potency against one or more of the cell lines | melting point: 129 °C

COc1ccc(-c2nc3ccc(F)cc3s2)cc1OC [Compound 3, 6-Fluoro-2-(3,4-dimethoxyphenyl)benzothiazole]
GI50 (MCF-7 [1]; [10]): 62 nM | GI50 (MDA 468; [12]): 5 nM | GI50 (KM 12; [13]): 24100 nM | GI50 (HCC 2998): 6.21 µM | sensitivity of cancer cell panels / antitumour activity in vitro [3]: reduced activity against cancer cells when compared to compound 1; also recorded: demonstrates antitumour activity in vitro; also recorded: potent (but attenuated compared to 1), activity in the colon and NSCL sub-panels | growth inhibitory potency in words [7]: retained nanomolar growth inhibitory potency against one or more of the cell lines | melting point: 153 to 155 °C

COc1ccc(-c2nc3ccccc3s2)cc1OC [Compound 4, 2-(3,4-Dimethoxyphenyl)benzothiazole]
GI50 (MDA 468; [12]): 530 nM | sensitivity of cancer cell panels / antitumour activity in vitro [3]: no cancer cells to be particularly sensitive; also recorded: attenuated pattern of activity | growth inhibitory potency in words [7]: retained sub-micromolar activity against MDA 468 | melting point: 141 to 143 °C

COc1cc(-c2nc3cc(F)ccc3s2)cc(OC)c1OC [Compound 43, 5-Fluoro-2-(3,4,5-trimethoxyphenyl)benzothiazole]
GI50 (MCF-7 [1]; [10]): 1.9 nM | GI50 (MDA 468; [12]): 2.1 nM | GI50 (KM 12; [13]): 13000 nM | GI50 (HCC 2998): 21.1 µM | growth inhibitory potency in words [7]: retained nanomolar inhibitory potency against the MCF-7 cell and MDA 468 cell lines | melting point: 120 to 122 °C

COCOc1ccc(-c2nc3cc(F)ccc3s2)cc1OC [Compound 44, 5-Fluoro-2-(3-methoxy-4-methoxymethyloxyphenyl)benzothiazole]
GI50 (MCF-7 [1]; [10]): 65 nM | GI50 (MDA 468; [12]): 48 nM | GI50 (KM 12; [13]): 19200 nM | GI50 (HCC 2998): 53.5 µM | growth inhibitory potency in words [7]: dyschemotherapeutic effect | melting point: 101 to 102 °C

CCOc1cc(-c2nc3cc(F)ccc3s2)ccc1OC [Compound 45, 2-(3-Ethoxy-4-methoxyphenyl)-5-fluorobenzothiazole]
GI50 (MCF-7 [1]; [10]): 80 nM | GI50 (MDA 468; [12]): 92 nM | GI50 (KM 12; [13]): 5420 nM | GI50 (HCC 2998): 3.32 µM | growth inhibitory potency in words [7]: dyschemotherapeutic effect | melting point: 136 to 139 °C

Cc1cc(-c2nc3ccccc3s2)ccc1N [Compound 101, 2-(4-amino-3-methylphenyl)benzothiazole, reference compound]
GI50 (MCF-7 [1]; [10]): < 0.1 nM | GI50 (MDA 468; [12]): < 0.1 nM | GI50 (KM 12; [13]): > 100000 nM | GI50 (HCC 2998): > 100 µM | sensitivity of cancer cell panels / antitumour activity in vitro [3]: ovarian and breast cancer cells are particularly sensitive | effect of resveratrol on growth inhibitory activity (MCF-7 [8]): block the activity | effect of resveratrol on growth inhibitory activity (MCF-7 [8]; listed as DF 203): abolished

Cc1cc(-c2nc3cc(F)ccc3s2)ccc1N [Compound 102, 2-(4-amino-3-methylphenyl)-5-fluorobenzothiazole, reference compound]
GI50 (MCF-7 [1]; [10]): < 0.1 nM | GI50 (MDA 468; [12]): < 0.1 nM | GI50 (KM 12; [13]): > 100000 nM | GI50 (HCC 2998): > 100 µM | sensitivity of cancer cell panels / antitumour activity in vitro [3]: non-small cell lung, ovarian, renal and breast cancel cells to be particularly sensitive | effect of resveratrol on activity (MCF-7 [9]): block the activity
